ChEMBL document CHEMBL5055617, “Conformational Constraint between Aromatic Residue Side Chains in the "Message" Sequence of the Peptide Arodyn Using Ring Closing Metathesis Results in a Potent and Selective Kappa Opioid Receptor Antagonist” (J Med Chem, 2021)
Square brackets hold non-standard residues; d marks the D form. Peptide text beside a SMILES is read from it.

Tests used:
[1] = biological target: T1, Kappa-type opioid receptor (Homo sapiens, UniProt P41145); assay: Displacement of [3H]-Diprenorphine from kappa opiod receptor (unknown origin) expressed in CHO cells incubated for 90 mins in presence of peptidase inhibitors; format: cell-based
[2] = species on record: Homo sapiens; assay: Selectivity index, ratio of Ki for displacement of [3H]-DAMGO from MOR (unknown origin) expressed in CHO cells to Ki for displacement of [3H]-Diprenorphine from KOR (unknown origin) expressed in CHO cells; format: cell-based
[3] = biological target: Mu-type opioid receptor (Homo sapiens, UniProt P35372); assay: Displacement of [3H]-DAMGO from mu opioid receptor (unknown origin) expressed in CHO cells incubated for 90 mins in presence of peptidase inhibitors; format: cell-based
[4] = biological target: T1, Kappa-type opioid receptor; assay: Antagonist activity at kappa opioid receptor (unkown origin) expressed in CHO cell membranes assessed as inhibition of Dyn A-(1-13)NH2 stimulated [35S]GTPgammaS binding incubated for 90 mins by liquid scintillation counting method; format: functional; conditions: Membrane, filed as antagonist

Chain of Mu-type opioid receptor (P35372 whole entry): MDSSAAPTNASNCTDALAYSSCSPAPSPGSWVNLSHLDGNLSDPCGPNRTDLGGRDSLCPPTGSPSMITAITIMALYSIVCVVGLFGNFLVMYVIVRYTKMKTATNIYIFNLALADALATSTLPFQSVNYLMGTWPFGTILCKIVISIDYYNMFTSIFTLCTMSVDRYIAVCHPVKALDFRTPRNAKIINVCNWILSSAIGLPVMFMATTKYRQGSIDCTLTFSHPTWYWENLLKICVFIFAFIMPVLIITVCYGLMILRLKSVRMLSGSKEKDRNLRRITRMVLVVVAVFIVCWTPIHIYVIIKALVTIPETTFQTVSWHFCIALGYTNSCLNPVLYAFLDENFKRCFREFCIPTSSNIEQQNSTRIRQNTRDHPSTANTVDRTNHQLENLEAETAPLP
T1 sequence (P41145 whole entry): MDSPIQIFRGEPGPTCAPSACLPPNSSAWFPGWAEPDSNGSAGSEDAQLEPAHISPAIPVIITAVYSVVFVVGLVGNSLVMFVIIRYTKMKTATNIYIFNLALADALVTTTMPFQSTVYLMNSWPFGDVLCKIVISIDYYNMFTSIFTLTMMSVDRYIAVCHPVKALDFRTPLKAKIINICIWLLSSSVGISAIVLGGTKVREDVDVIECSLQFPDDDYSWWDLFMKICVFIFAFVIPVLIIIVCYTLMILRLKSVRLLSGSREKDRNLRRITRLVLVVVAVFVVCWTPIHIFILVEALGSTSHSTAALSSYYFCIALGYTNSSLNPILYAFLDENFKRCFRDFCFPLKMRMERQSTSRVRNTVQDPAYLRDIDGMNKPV

Structure (SMILES)	Ki [1] [nM]	Ratio Ki [2]	Ki [3] [nM]	Kb [4] [nM]
CC(=O)N[C@@H](Cc1ccccc1)C(=O)N[C@H]1Cc2cccc(c2)OC/C=C/COc2ccc(cc2)C[C@@H](C(=O)N[C@@H](CCCNC(=N)N)C(=O)N[C@@H](CC(C)C)C(=O)N[C@@H](CCCNC(=N)N)C(=O)N[C@@H](CCCNC(=N)N)C(=O)N[C@H](C)C(=O)N[C@@H](CCCNC(=N)N)C(=O)N2CCC[C@H]2C(=O)N[C@@H](CCCCN)C(N)=O)NC1=O	39.2	50	1960	
C=CCOc1ccc(C[C@H](NC(=O)[C@H](Cc2ccccc2)NC(C)=O)C(=O)N[C@@H](Cc2cccc(OCC=C)c2)C(=O)N[C@@H](CCCNC(=N)N)C(=O)N[C@@H](CC(C)C)C(=O)N[C@@H](CCCNC(=N)N)C(=O)N[C@@H](CCCNC(=N)N)C(=O)N[C@H](C)C(=O)N[C@@H](CCCNC(=N)N)C(=O)N2CCC[C@H]2C(=O)N[C@@H](CCCCN)C(N)=O)cc1	11.7	118	1380	
CC(=O)N[C@@H](Cc1ccccc1)C(=O)N[C@H]1Cc2ccc(cc2)OC/C=C/COc2cccc(c2)C[C@@H](C(=O)N[C@@H](CCCNC(=N)N)C(=O)N[C@@H](CC(C)C)C(=O)N[C@@H](CCCNC(=N)N)C(=O)N[C@@H](CCCNC(=N)N)C(=O)N[C@H](C)C(=O)N[C@@H](CCCNC(=N)N)C(=O)N2CCC[C@H]2C(=O)N[C@@H](CCCCN)C(N)=O)NC1=O	19.8	31	607	
C=CCOc1ccc(C[C@H](NC(=O)[C@H](Cc2cccc(OCC=C)c2)NC(=O)[C@H](Cc2ccccc2)NC(C)=O)C(=O)N[C@@H](CCCNC(=N)N)C(=O)N[C@@H](CC(C)C)C(=O)N[C@@H](CCCNC(=N)N)C(=O)N[C@@H](CCCNC(=N)N)C(=O)N[C@H](C)C(=O)N[C@@H](CCCNC(=N)N)C(=O)N2CCC[C@H]2C(=O)N[C@@H](CCCCN)C(N)=O)cc1	41.2	32	1330	
CC(=O)N[C@@H](Cc1ccccc1)C(=O)N[C@@H](Cc1ccccc1)C(=O)N[C@@H](Cc1ccccc1)C(=O)N[C@@H](CCCNC(=N)N)C(=O)N[C@@H](CC(C)C)C(=O)N[C@@H](CCCNC(=N)N)C(=O)N[C@@H](CCCNC(=N)N)C(=O)N[C@H](C)C(=O)N[C@@H](CCCNC(=N)N)C(=O)N1CCC[C@H]1C(=O)N[C@@H](CCCCN)C(N)=O (Ac-FFFRLRR[dA]RPK-NH2)		174	1740	
CC(=O)N[C@H]1Cc2ccc(cc2)OC/C=C/COc2cccc(c2)C[C@@H](C(=O)N[C@@H](Cc2ccccc2)C(=O)N[C@@H](CCCNC(=N)N)C(=O)N[C@@H](CC(C)C)C(=O)N[C@@H](CCCNC(=N)N)C(=O)N[C@@H](CCCNC(=N)N)C(=O)N[C@H](C)C(=O)N[C@@H](CCCNC(=N)N)C(=O)N2CCC[C@H]2C(=O)N[C@@H](CCCCN)C(N)=O)NC1=O	56.7	9	501	
C=CCOc1cccc(C[C@H](NC(=O)[C@H](Cc2ccccc2)NC(C)=O)C(=O)N[C@@H](Cc2cccc(OCC=C)c2)C(=O)N[C@@H](CCCNC(=N)N)C(=O)N[C@@H](CC(C)C)C(=O)N[C@@H](CCCNC(=N)N)C(=O)N[C@@H](CCCNC(=N)N)C(=O)N[C@H](C)C(=O)N[C@@H](CCCNC(=N)N)C(=O)N2CCC[C@H]2C(=O)N[C@@H](CCCCN)C(N)=O)c1	3.3	255	838	
CC(=O)N[C@H]1Cc2cccc(c2)OC/C=C/COc2ccc(cc2)C[C@@H](C(=O)N[C@@H](Cc2ccccc2)C(=O)N[C@@H](CCCNC(=N)N)C(=O)N[C@@H](CC(C)C)C(=O)N[C@@H](CCCNC(=N)N)C(=O)N[C@@H](CCCNC(=N)N)C(=O)N[C@H](C)C(=O)N[C@@H](CCCNC(=N)N)C(=O)N2CCC[C@H]2C(=O)N[C@@H](CCCCN)C(N)=O)NC1=O	29.2	22	657	
C=CCOc1ccc(C[C@H](NC(C)=O)C(=O)N[C@@H](Cc2cccc(OCC=C)c2)C(=O)N[C@@H](Cc2ccccc2)C(=O)N[C@@H](CCCNC(=N)N)C(=O)N[C@@H](CC(C)C)C(=O)N[C@@H](CCCNC(=N)N)C(=O)N[C@@H](CCCNC(=N)N)C(=O)N[C@H](C)C(=O)N[C@@H](CCCNC(=N)N)C(=O)N2CCC[C@H]2C(=O)N[C@@H](CCCCN)C(N)=O)cc1	62.2	8	490	
CC(=O)N[C@@H](Cc1ccccc1)C(=O)N[C@H]1Cc2ccc(cc2)OC/C=C/COc2ccc(cc2)C[C@@H](C(=O)N[C@@H](CCCNC(=N)N)C(=O)N[C@@H](CC(C)C)C(=O)N[C@@H](CCCNC(=N)N)C(=O)N[C@@H](CCCNC(=N)N)C(=O)N[C@H](C)C(=O)N[C@@H](CCCNC(=N)N)C(=O)N2CCC[C@H]2C(=O)N[C@@H](CCCCN)C(N)=O)NC1=O	14.7	93	1370	15
C=CCOc1ccc(C[C@H](NC(C)=O)C(=O)N[C@@H](Cc2ccc(OCC=C)cc2)C(=O)N[C@@H](Cc2ccccc2)C(=O)N[C@@H](CCCNC(=N)N)C(=O)N[C@@H](CC(C)C)C(=O)N[C@@H](CCCNC(=N)N)C(=O)N[C@@H](CCCNC(=N)N)C(=O)N[C@H](C)C(=O)N[C@@H](CCCNC(=N)N)C(=O)N2CCC[C@H]2C(=O)N[C@@H](CCCCN)C(N)=O)cc1	12.1	18	221	
C=CCOc1ccc(C[C@H](NC(=O)[C@H](Cc2ccccc2)NC(C)=O)C(=O)N[C@@H](Cc2ccc(OCC=C)cc2)C(=O)N[C@@H](CCCNC(=N)N)C(=O)N[C@@H](CC(C)C)C(=O)N[C@@H](CCCNC(=N)N)C(=O)N[C@@H](CCCNC(=N)N)C(=O)N[C@H](C)C(=O)N[C@@H](CCCNC(=N)N)C(=O)N2CCC[C@H]2C(=O)N[C@@H](CCCCN)C(N)=O)cc1	18.9	65	1220	
C=CCOc1ccc(C[C@H](NC(=O)[C@H](Cc2cccc(OCC=C)c2)NC(C)=O)C(=O)N[C@@H](Cc2ccccc2)C(=O)N[C@@H](CCCNC(=N)N)C(=O)N[C@@H](CC(C)C)C(=O)N[C@@H](CCCNC(=N)N)C(=O)N[C@@H](CCCNC(=N)N)C(=O)N[C@H](C)C(=O)N[C@@H](CCCNC(=N)N)C(=O)N2CCC[C@H]2C(=O)N[C@@H](CCCCN)C(N)=O)cc1	43.2	11	478	
C=CCOc1cccc(C[C@H](NC(C)=O)C(=O)N[C@@H](Cc2cccc(OCC=C)c2)C(=O)N[C@@H](Cc2ccccc2)C(=O)N[C@@H](CCCNC(=N)N)C(=O)N[C@@H](CC(C)C)C(=O)N[C@@H](CCCNC(=N)N)C(=O)N[C@@H](CCCNC(=N)N)C(=O)N[C@H](C)C(=O)N[C@@H](CCCNC(=N)N)C(=O)N2CCC[C@H]2C(=O)N[C@@H](CCCCN)C(N)=O)c1	65.8	7	491	
CC(=O)N[C@H]1Cc2ccc(cc2)OC/C=C/COc2ccc(cc2)C[C@@H](C(=O)N[C@@H](Cc2ccccc2)C(=O)N[C@@H](CCCNC(=N)N)C(=O)N[C@@H](CC(C)C)C(=O)N[C@@H](CCCNC(=N)N)C(=O)N[C@@H](CCCNC(=N)N)C(=O)N[C@H](C)C(=O)N[C@@H](CCCNC(=N)N)C(=O)N2CCC[C@H]2C(=O)N[C@@H](CCCCN)C(N)=O)NC1=O	11.7	123	1430	288
CC(=O)N[C@@H](Cc1ccccc1)C(=O)N[C@H]1Cc2cccc(c2)OC/C=C\COc2cccc(c2)C[C@@H](C(=O)N[C@@H](CCCNC(=N)N)C(=O)N[C@@H](CC(C)C)C(=O)N[C@@H](CCCNC(=N)N)C(=O)N[C@@H](CCCNC(=N)N)C(=O)N[C@H](C)C(=O)N[C@@H](CCCNC(=N)N)C(=O)N2CCC[C@H]2C(=O)N[C@@H](CCCCN)C(N)=O)NC1=O	15.4	54	828	
CC(=O)N[C@H]1Cc2cccc(c2)OC/C=C/COc2cccc(c2)C[C@@H](C(=O)N[C@@H](Cc2ccccc2)C(=O)N[C@@H](CCCNC(=N)N)C(=O)N[C@@H](CC(C)C)C(=O)N[C@@H](CCCNC(=N)N)C(=O)N[C@@H](CCCNC(=N)N)C(=O)N[C@H](C)C(=O)N[C@@H](CCCNC(=N)N)C(=O)N2CCC[C@H]2C(=O)N[C@@H](CCCCN)C(N)=O)NC1=O	68.2	24	1630	
